From ChEMBL document CHEMBL1201862, “PubChem BioAssay data set” (2004)
Active and inactive are the calls of the source.

Key:
[1] = biological target: T1, Tyrosine-protein kinase JAK3 (Homo sapiens, UniProt P52333); assay type: functional
T1 sequence (P52333 whole entry): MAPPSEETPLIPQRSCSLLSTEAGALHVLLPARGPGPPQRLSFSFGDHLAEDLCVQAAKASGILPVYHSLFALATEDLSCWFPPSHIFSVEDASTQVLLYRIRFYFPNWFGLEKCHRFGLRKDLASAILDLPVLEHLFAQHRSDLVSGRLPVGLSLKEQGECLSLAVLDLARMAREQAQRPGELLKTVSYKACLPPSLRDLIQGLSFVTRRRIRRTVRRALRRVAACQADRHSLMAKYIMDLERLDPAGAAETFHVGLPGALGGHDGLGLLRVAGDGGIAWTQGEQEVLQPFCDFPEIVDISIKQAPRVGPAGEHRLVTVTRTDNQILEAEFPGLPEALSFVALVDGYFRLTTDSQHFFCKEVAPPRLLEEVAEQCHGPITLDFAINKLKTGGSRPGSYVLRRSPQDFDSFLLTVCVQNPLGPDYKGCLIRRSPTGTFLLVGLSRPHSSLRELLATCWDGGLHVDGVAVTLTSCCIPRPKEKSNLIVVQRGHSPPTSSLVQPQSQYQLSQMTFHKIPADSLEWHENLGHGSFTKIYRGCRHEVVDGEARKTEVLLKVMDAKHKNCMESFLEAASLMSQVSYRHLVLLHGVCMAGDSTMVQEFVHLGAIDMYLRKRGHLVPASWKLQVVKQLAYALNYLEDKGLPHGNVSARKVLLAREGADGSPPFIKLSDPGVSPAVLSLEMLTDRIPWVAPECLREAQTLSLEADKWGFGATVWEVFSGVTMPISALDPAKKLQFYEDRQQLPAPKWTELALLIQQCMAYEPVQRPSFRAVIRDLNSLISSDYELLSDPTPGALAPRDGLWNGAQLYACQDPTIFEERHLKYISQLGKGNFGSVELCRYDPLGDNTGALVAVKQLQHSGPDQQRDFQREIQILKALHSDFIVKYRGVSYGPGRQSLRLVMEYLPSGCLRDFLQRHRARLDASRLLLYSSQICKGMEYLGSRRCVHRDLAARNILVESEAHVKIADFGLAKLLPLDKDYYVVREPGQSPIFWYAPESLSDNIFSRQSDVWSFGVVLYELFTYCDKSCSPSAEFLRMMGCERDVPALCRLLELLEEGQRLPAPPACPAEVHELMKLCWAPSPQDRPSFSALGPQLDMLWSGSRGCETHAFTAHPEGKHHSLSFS

[2] = biological target: Macrophage-stimulating protein receptor (Homo sapiens, UniProt Q04912); assay: Navigating the Kinome. Panel member name: MST1R; assay type: functional
Macrophage-stimulating protein receptor, sequence (Q04912 25-304 limits assumed): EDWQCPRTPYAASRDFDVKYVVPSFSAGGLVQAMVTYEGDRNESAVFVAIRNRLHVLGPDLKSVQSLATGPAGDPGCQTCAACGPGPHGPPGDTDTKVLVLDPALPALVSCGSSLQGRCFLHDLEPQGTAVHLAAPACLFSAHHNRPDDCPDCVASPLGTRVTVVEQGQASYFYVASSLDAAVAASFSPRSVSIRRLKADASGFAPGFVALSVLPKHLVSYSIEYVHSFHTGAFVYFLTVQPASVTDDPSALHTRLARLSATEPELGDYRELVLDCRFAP
Macrophage-stimulating protein receptor, sequence (Q04912 310-1400 limits assumed): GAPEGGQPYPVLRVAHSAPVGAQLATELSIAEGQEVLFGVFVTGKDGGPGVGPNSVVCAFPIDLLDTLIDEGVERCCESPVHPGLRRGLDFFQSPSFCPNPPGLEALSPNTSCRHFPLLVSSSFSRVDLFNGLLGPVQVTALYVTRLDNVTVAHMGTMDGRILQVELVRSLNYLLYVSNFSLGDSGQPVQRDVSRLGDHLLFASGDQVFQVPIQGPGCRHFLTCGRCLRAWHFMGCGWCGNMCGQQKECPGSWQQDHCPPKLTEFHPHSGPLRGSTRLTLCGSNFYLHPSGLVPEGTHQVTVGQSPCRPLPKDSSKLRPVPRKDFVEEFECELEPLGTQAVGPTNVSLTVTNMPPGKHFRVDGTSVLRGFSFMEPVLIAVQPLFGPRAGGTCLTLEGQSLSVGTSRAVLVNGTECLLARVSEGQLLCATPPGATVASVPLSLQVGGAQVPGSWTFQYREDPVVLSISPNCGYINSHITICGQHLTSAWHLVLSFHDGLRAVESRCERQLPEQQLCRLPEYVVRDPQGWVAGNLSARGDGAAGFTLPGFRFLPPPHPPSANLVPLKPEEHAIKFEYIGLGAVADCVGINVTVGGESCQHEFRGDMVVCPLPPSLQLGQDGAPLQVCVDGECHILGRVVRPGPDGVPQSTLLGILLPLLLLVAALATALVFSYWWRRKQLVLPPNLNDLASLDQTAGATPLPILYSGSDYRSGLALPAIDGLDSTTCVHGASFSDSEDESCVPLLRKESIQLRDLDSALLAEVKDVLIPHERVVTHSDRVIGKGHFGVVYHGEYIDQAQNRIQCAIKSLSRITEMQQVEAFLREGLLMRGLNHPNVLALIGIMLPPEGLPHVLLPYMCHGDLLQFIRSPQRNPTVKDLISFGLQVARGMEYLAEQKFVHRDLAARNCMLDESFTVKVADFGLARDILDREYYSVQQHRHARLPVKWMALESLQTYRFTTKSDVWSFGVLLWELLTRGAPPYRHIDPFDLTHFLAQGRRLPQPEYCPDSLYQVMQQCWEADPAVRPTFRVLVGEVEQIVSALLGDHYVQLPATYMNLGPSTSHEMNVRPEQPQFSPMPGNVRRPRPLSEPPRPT

[3] = biological target: Fibroblast growth factor receptor 1 (Homo sapiens, UniProt P11362); assay type: functional
[4] = biological target: Tyrosine-protein kinase Fyn (Homo sapiens, UniProt P06241); assay type: functional
[5] = biological target: Protein kinase C theta type (Homo sapiens, UniProt Q04759); assay: Navigating the Kinome. Panel member name: PRKCQ; assay type: functional
[6] = biological target: Vascular endothelial growth factor receptor 2 (Homo sapiens, UniProt P35968); assay type: functional
Vascular endothelial growth factor receptor 2, sequence (P35968 whole entry): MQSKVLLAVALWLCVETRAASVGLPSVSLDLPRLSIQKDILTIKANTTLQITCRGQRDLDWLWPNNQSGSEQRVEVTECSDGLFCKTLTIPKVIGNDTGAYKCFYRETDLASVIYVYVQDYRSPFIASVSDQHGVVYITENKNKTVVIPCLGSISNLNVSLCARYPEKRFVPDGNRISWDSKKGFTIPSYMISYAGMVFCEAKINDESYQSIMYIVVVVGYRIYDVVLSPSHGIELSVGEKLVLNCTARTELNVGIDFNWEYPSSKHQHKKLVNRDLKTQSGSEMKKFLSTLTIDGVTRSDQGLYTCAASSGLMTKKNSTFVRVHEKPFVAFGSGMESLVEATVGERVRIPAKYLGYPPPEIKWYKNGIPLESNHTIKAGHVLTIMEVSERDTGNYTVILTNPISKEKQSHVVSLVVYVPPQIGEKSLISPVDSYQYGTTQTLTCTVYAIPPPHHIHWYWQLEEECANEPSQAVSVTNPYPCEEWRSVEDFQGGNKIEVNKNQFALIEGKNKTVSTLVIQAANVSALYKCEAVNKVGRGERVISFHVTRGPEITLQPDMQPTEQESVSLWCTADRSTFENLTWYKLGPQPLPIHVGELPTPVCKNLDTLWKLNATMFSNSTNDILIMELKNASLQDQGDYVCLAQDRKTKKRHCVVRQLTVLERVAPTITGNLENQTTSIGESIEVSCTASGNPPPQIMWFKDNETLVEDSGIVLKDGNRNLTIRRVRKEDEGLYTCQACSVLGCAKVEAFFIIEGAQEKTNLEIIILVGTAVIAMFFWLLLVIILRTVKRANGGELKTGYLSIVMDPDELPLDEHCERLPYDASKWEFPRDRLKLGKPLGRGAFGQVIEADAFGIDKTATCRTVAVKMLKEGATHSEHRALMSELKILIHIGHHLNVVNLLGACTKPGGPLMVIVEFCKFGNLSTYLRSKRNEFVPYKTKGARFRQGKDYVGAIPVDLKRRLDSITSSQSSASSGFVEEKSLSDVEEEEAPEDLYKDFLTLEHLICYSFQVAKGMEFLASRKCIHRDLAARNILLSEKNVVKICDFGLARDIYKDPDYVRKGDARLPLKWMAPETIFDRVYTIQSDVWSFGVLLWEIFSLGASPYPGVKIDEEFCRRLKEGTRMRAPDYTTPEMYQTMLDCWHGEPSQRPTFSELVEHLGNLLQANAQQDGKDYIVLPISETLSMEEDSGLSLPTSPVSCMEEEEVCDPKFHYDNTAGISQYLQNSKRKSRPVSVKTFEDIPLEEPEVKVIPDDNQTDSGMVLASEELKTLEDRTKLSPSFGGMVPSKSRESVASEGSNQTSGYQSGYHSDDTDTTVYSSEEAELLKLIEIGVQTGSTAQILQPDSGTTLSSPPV

[7] = biological target: BDNF/NT-3 growth factors receptor (Homo sapiens, UniProt Q16620); assay type: functional;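 further: NTRK2 measured as one member of a broad kinome-wide kinase profiling panel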
[8] = biological target: 5'-AMP-activated protein kinase catalytic subunit alpha-1 (Homo sapiens, UniProt Q13131); assay type: functional
5'-AMP-activated protein kinase catalytic subunit alpha-1, sequence (Q13131 whole entry): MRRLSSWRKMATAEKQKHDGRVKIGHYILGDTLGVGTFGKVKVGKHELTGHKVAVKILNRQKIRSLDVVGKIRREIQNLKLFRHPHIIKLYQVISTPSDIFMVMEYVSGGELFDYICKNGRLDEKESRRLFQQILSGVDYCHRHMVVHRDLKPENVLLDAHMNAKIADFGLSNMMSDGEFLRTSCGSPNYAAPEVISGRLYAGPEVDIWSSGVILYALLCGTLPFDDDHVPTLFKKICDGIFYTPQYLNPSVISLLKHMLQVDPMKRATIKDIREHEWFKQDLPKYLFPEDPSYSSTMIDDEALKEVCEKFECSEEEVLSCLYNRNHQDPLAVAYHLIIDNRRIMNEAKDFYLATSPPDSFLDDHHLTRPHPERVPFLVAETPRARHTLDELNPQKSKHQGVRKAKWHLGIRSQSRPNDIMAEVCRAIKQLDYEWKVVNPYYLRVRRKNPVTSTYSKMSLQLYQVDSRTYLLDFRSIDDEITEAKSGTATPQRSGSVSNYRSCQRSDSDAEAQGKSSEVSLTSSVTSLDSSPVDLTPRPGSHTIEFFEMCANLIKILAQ

Activin receptor type-1 = Activin receptor type-1 (Homo sapiens, UniProt Q04771); assay: Navigating the Kinome. Panel member name: ACVR1; assay type: functional
[9] = biological target: Glycogen synthase kinase-3 alpha (Homo sapiens, UniProt P49840); assay type: functional;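 further: GSK3A result taken from a broad kinome-wide kinase panel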
[10] = biological target: Ribosomal protein S6 kinase alpha-3 (Homo sapiens, UniProt P51812); assay type: functional;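 further: measured within a kinome-wide profiling panel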
[11] = biological target: Death-associated protein kinase 3 (Homo sapiens, UniProt O43293); assay type: functional;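 further: measured as one member of a kinome-wide profiling panel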
Death-associated protein kinase 3, sequence (O43293 whole entry): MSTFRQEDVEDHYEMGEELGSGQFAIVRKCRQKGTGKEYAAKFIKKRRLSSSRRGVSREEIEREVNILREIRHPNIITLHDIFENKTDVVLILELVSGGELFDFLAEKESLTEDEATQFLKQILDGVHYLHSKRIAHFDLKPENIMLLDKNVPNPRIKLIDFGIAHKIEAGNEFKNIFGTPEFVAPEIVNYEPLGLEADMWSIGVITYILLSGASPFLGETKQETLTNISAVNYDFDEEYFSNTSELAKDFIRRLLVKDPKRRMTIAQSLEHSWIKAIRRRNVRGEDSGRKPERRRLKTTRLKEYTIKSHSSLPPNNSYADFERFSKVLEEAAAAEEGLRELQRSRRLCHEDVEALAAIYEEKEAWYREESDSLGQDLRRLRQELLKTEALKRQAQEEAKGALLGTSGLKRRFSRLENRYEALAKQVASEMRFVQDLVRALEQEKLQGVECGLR

[12] = biological target: Insulin-like growth factor 1 receptor (Homo sapiens, UniProt P08069); assay: Navigating the Kinome. Panel member name: IGF1R; assay type: functional
Insulin-like growth factor 1 receptor, sequence (P08069 31-736 limits assumed): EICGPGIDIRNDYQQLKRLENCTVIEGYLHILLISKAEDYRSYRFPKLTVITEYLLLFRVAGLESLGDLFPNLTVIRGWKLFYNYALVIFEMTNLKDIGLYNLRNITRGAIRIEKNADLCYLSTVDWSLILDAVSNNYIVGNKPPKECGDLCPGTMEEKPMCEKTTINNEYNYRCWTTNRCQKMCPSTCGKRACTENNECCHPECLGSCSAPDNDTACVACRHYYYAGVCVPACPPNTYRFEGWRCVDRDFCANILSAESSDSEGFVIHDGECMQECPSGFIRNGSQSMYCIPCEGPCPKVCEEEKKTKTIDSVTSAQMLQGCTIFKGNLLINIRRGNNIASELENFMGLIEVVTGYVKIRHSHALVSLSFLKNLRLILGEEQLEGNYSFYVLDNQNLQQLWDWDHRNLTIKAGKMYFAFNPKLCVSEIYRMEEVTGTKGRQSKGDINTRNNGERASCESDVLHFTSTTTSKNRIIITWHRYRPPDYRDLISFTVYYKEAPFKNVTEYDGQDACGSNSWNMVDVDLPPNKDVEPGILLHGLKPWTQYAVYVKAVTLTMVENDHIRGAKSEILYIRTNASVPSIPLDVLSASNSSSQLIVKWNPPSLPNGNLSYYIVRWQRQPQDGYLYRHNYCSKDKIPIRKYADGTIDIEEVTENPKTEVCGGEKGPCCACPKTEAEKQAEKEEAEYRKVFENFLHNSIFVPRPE
Insulin-like growth factor 1 receptor, sequence (P08069 741-1367 limits assumed): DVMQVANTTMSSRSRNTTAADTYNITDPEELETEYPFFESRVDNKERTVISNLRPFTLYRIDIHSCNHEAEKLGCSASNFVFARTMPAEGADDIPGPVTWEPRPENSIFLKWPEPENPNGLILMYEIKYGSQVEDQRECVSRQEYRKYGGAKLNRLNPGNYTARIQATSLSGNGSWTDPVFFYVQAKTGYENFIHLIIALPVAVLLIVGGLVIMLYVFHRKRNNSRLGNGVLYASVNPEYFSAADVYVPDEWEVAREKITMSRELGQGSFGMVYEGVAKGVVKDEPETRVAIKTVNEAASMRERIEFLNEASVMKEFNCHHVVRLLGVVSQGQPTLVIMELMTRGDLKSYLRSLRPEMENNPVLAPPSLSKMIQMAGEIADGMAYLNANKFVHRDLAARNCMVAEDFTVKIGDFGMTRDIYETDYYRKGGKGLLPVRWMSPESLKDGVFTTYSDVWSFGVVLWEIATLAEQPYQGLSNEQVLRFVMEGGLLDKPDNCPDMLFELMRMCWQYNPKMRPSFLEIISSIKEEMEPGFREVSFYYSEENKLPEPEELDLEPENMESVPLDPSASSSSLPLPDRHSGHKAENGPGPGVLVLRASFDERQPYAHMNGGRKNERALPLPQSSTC

[13] = biological target: T2, Serine/threonine-protein kinase Chk1 (Homo sapiens, UniProt O14757); assay type: functional;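 further: measured as one member of a kinome-wide kinase profiling panel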
T2 sequence (O14757 whole entry): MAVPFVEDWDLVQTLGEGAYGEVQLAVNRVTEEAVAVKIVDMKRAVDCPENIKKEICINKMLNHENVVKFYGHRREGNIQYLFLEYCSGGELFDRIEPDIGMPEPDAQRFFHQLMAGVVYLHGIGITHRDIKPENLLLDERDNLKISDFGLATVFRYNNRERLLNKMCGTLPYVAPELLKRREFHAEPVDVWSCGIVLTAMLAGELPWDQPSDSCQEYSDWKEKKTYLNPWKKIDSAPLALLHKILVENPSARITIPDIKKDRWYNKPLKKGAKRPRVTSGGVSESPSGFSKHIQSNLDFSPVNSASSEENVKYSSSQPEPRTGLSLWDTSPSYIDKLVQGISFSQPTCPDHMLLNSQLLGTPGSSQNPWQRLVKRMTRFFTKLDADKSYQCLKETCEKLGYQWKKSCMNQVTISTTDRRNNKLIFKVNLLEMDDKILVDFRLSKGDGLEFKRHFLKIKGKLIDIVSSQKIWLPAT

Melanocortin receptor 4 = Melanocortin receptor 4 (Homo sapiens, UniProt P32245); assay: inhibitors of MC4R cAMP signaling – cell-based, TR-FRET, biased antagonists, dose response (AID 602298); assay type: functional;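 further: antagonist potency against agonist-stimulated cAMP production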
Streptococcus = assay: GAS UMAA2166 growth inhibition – luminescence, BacTiterGlo, counter-screen for streptokinase expression inhibitor project, dose response (AID 1915); assay type: functional, organism-based;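 further: potency for reduction of bacterial viability or growth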
[14] = alpha-synuclein stem-loop luciferase translation blockers – H4 neuroglioma cells, luminescence, confirmation (AID 1988); assay type: functional, cell-based
Streptokinase A = biological target: T3, Streptokinase A (Streptococcus pyogenes serotype M1, UniProt P10520); assay: viability-normalized secreted streptokinase activity reduction – plasminogen activation absorbance, OD405, dose response (AID 1914); assay type: functional, Streptococcus pyogenes M1 GAS;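 further: secreted streptokinase activity via plasminogen activation per viability signal from cell pellet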
T3 sequence (P10520 whole entry): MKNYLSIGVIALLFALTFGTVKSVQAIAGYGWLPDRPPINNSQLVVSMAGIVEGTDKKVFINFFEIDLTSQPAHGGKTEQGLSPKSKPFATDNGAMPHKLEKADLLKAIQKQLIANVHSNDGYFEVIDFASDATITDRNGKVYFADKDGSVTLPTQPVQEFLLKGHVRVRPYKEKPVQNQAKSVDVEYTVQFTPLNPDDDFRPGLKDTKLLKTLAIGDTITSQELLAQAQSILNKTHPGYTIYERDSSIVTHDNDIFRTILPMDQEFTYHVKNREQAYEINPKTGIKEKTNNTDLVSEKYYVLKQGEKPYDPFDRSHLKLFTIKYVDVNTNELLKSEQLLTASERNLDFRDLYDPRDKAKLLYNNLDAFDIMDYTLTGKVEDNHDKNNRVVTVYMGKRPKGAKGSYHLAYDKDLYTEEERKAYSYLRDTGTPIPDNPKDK

## COc1cccc(C(C)NC(=O)c2ccc(-c3ccncc3)s2)c1 (stereo not drawn)
[1]
  Ki: > 5.01 µM (inactive)
[2]
  Ki: > 3.98 µM (inactive)
[3]
  Ki: > 3.98 µM (inactive)
[4]
  Ki: > 6.31 µM (inactive)
[5]
  Ki: 0.316 µM (active)
[6]
  Ki: > 2.51 µM (inactive)
[7]
  Ki: > 3.98 µM (inactive)
[8]
  Ki: > 3.16 µM (inactive)
Activin receptor type-1
  Ki: 2.51 µM (active)
[9]
  Ki: 1 µM (active)
[10]
  Ki: 1.58 µM (active)
[11]
  Ki: > 5.01 µM (inactive)
[12]
  Ki: > 2.51 µM (inactive)
[13]
  Ki: 0.0794 µM (active)

## O=Nc1c(-c2c(O)[nH]c3cc(Br)ccc23)[nH]c2ccccc12
Melanocortin receptor 4
  IC50: 6.37 µM (active)
Streptococcus
  EC50: 3.48 µM (active)
[14]
  EC50: 9.31 µM (active)
Streptokinase A
  EC50: 44.9 µM (active)
